# According to patent publication US20250032580A1, “USE OF ADNF POLYPEPTIDES IN THERAPY” (RAMOT AT TEL-AVIV UNIVERSITY LTD., priority 2021, published 2025):
# What was measured:
# Tyr-GFP mice = assay: Dendritic spine quantitation; assay type: in vivo, mouse; parameters: key to NAP efficacy: synaptic structural alterations: corrections by NAP treatment (+)
# Procedure: Spine quantitation—For determination of dendritic spine morphology, the Tyr-GFP mouse model was used and generated as described(12). 1.5-2-month-old Tyr-GFP-mice were treated for 9 consecutive days with either intraperitoneal NAP injection (0.4 μg/0.1 ml saline) or with 0.1 ml saline. On day 9, mice were perfused, and brains were subjected to immunohistochemistry and imaging (12).
# Tyr mice = assay: RNA seq of mouse spleens; assay type: in vivo; parameters: key to NAP efficacy: gene expression patterns: corrections by NAP treatment (+)
# Procedure: RNA seq—Total RNA was extracted from 14-week-old mouse spleens and sequenced using standard methods on NextSeq500 system (Illumina) as detailed. Data were analyzed as previously described (9).
# [1] = tested on: differentiated N1E-115 cells; assay: Live imaging of EB3 comet-like structures (MT dynamics); assay type: cell-based, mouse
# Procedure: Cell culture—Mouse neuroblastoma NIE-115 cells were maintained in Dulbecco's modified Eagle's medium, 10% fetal bovine serum, 2 mM glutamine and 100 U ml—1 penicillin, […] ml—1 streptomycin (Biological Industries, Beit Haemek, Israel). The cells were incubated in 95% air/5% CO2 in a humidified incubator at 37° C.
# Cell differentiation and co-transfection of overexpression plasmids—Cultured NIE-115 cells were plated on 35 mm dishes (81156, 60μ-Dish, Ibidi, Martinsried, Germany) at a concentration of 1.25×10^4 cells per dish and then were differentiated with reduced fetal bovine serum (2%) and DMSO (1.25%) containing medium for 5 days before transfection. 48 hrs before experiments N1E-115 cells were co-transfected with 1 μg EB3-RFP or mCherry-Tau (3R) plasmid with or without 2 μg of plasmids, coding to GFP conjugated to full-length human ADNP, or ADNP carried mutations. 1:3 ratios between total amount of transfected DNA and transfection reagent were used according to manufacture guidance (Lipofectamine2000, Thermo Fisher Scientific, Waltham, MA, USA) in all subsequent experiments.
# Live Imaging—48 hrs after transfection, differentiated NIE-115 cells (expressing EB3-RFP with or without GFP-conjugated to full-length ADNP or mutated ADNP) were incubated at 37° C. with a 5% CO2/95% air mixture in a thermostatic chamber placed on the stage of a Leica TCS SP5 confocal microscope (objective 100× (PL Apo) oil immersion, NA 1.4). Time-lapse images were automatically captured 3 sec during 1 min, using the Leica LAS AF software. After imaging all samples were also treated with NAP (SEQ ID NO: 2) or SKIP (SEQ ID NO: 21) in final concentrations of 10^−12 M, and after 4 hrs time-lapse imaging was done again under the same conditions. Data was collected and analyzed by Imaris software.
# To evaluate the effect of ADNP truncated proteins on MT dynamics time-lapse imaging of EB3 comet-like structures formed by RFP-tagged EB3 proteins that bind to MT plus-ends was performed. Two parameters of EB3 activity were used to assess MT dynamics—track length and track speed of EB3 comets, which reflect the length of freshly growing MTs and the speed of MT assembly, respectively. Furthermore, the present inventors aimed to determine whether NAP (10^−12 M for 4 hrs) could prevent the deleterious effect of ADNP mutations.
# [2] = tested on: SHANK3 mouse model (InsG3680 mutation); assay: Open field behavior; assay type: in vivo; conditions: intranasal, once daily, five days a week for a month
# Procedure: To this end, mice with the ASD-linked InsG3680 mutation were used. Two behavioral assessments were performed on make mice: • 1) Open field behavior attesting to anxiety and depression (Open field behavioral assessment technology was previously described, e.g.); and • 2) Social recognition behavior, related to autistic traits (the social recognition test was previously described, e.g..
# This surprising finding is of importance as there is a psychiatric illness and regression in individuals with Phelan-McDermid syndrome.
# SHANK3 mice = assay: Eubacteriaceae (EubV3) microbiota; assay type: in vivo, mouse; conditions: data not shown
# [3] = tested on: Shank3-Adnp-actin interactions; assay: Actin co-immunoprecipitations from mouse brain extracts
# Description: De novo heterozygous mutations in ADNP reproduced the autistic ADNP syndrome. ADNP mutations impair microtubule (MT) function, essential for synaptic activity. The ADNP MT-associating fragment NAPVSIPQ (NAP) (SEQ ID NO 2) contains an MT end-binding protein interacting domain, SxIP (mimicking the active-peptide, SKIP, SEQ ID NO 21). The inventors hypothesized that not all ADNP mutations are similarly deleterious and that the NAPV portion of NAPVSIPQ is biologically active. Using the eukaryotic linear motif (ELM) resource, the inventors identified a Src homology 3 (SH3) domain-ligand association site in NAP responsible for controlling signaling pathways regulating the cytoskeleton, namely NAPVSIP (SEQ ID NO: 2). Altogether, the inventors mapped multiple SH3-binding sites in ADNP. […] Site-directed-mutagenesis, abolishing the p.Lys408Valfs*31 SH3-binding motif, produced MT toxicity. […] Lastly, SH3 and multiple ankyrin repeat domains protein 3 (SHANK3), a major autism gene product, interact with the cytoskeleton through an actin-binding motif to modify behavior.
# Adnp+/− mouse = tested on: Adnp+/− mouse; parameters: key: corrections by NAP treatment (+); conditions: second symbol of cell, cited from earlier work
# [4] = Tyr mouse, first symbol of cell
# [5] = males and WT females, data not shown
compound,measurement,setting,value
"CC[C@H](C)[C@H](NC(=O)[C@H](CO)NC(=O)[C@@H](NC(=O)[C@@H]1CCCN1C(=O)[C@H](C)NC(=O)[C@@H](N)CC(N)=O)C(C)C)C(=O)N1CCC[C@H]1C(=O)N[C@@H](CCC(N)=O)C(=O)O [NAP, NAPVSIPQ]",NAP efficacy: synaptic structural alterations,Tyr-GFP mice; [4],+/+
same,"Mushroom shaped spine density, motor cortex",Tyr-GFP mice; female Tyr mice,significantly affecting
same,PSD95 volume in the hippocampus,Tyr-GFP mice; female Tyr mice,complete resolution
same,Increase in motor cortex L5 layer spine density,"Tyr-GFP mice; female Tyr mice, i.p. NAP, 9 days",~17%
same,Hippocampal total spines and subtypes,"Tyr-GFP mice; females and WT males, data not shown",no genotype or treatment changes in females or treatment effect on WT males
same,Increase in CA1 hippocampal dendritic spine density,"Tyr-GFP mice; male Tyr mice, i.p. NAP 0.4 μg/0.1 ml saline, 9 days",~23%
same,Motor cortex spine density,Tyr-GFP mice; [5],No genotype or treatment changes were observed in males and no treatment effect was found on WT females
same,Motor cortex spine subtypes,Tyr-GFP mice; [5],No NAP effect
same,Genotype/NAP effect on splenic gene expression,"Tyr mice; Tyr mice, males vs females","very minor genotype/NAP effect on males, and a more comprehensive effect on females"
same,NAP efficacy: gene expression patterns,Tyr mice; [4],+/+
same,"Number of RNA transcripts affected by the Tyr Adnp mutation, corrected by NAP treatment",Tyr mice; female spleens,89
same,"Number of RNA transcripts affected by the Tyr Adnp mutation, corrected by NAP treatment",Tyr mice; male spleens,13
same,Difference between effects of NAP and SKIP on EB3 track length and speed,"[1]; 10^−12 M, 4 hrs",no significant differences
same,Speed and track length of EB3 comets,"[1]; cells expressing ADNP p.Glu830synfs*83, 10^−12 M, 4 hrs",significantly augmented
same,EB3 comet speed,"[1]; cells expressing ADNP p.Lys408Valfs*31, 10^−12 M, 4 hrs",significantly augmented
same,EB3 activity (track length and comet speed),"[1]; cells expressing ADNP p.Lys408Valfs*31 SDM, 10^−12 M, 4 hrs",recovered EB3 activity to the control level
same,Speed and track length of EB3 comets,"[1]; cells expressing ADNP p.Ser404*, 10^−12 M, 4 hrs",significantly augmented
same,EB3 comet track length and speed,"[1]; cells overexpressing full-length ADNP, 10^−12 M, 4 hrs",did not further influence
same,EB3 track length and speed compared to non-treated control,"[1]; no ADNP plasmid, 10^−12 M, 4 hrs",increased EB3 track length and speed
same,MT activities in the face of all ADNP mutations,[1]; summary of results,normalized MT activities
same,Cumulative duration in the center (open field),[2],significantly increased
same,EubV3 trend to change as a consequence of the SHANK3 mutation,SHANK3 mice,this trend was not observed in the treated mice
same,Shank3-Adnp-actin interactions,[3],NAP-mediated normalization
same,"NAP efficacy: cognitive impairments, behavioral deficits",Adnp+/− mouse; Adnp+/− mouse (8),+(odor)/+(8)
same,NAP efficacy: axonal transport,Adnp+/− mouse; Adnp+/− mouse,+/+
same,NAP efficacy: gene expression patterns,Adnp+/− mouse; Adnp+/− mouse,+/+
same,NAP efficacy: global developmental delays,Adnp+/− mouse; Adnp+/− mouse,+/+
same,NAP efficacy: microbiota,Adnp+/− mouse; Adnp+/− mouse,+/+
same,NAP efficacy: motor impediments,Adnp+/− mouse; Adnp+/− mouse,+/(gait)+
same,NAP efficacy: short stature,Adnp+/− mouse; Adnp+/− mouse,+
same,NAP efficacy: speech impediments,Adnp+/− mouse; Adnp+/− mouse,+/+ (syntax)
same,NAP efficacy: synaptic structural alterations,Adnp+/− mouse; Adnp+/− mouse,+/+
same,"NAP efficacy: tauopathy, hyperphosphorylated Tau deposits",Adnp+/− mouse; Adnp+/− mouse,+/+
